Measurements reported in patent US6720346B2, “Thiazole benzamide derivatives and pharmaceutical compositions for inhibiting cell proliferation” (Agouron Pharmaceuticals, Inc., priority 2001, dated 2004).
Where a name gives a salt, the structure may show the parent alone.

Key:
CDK2/cyclin A = biological target: T1, CDK2/cyclin A (Homo sapiens, UniProt P24941); test: Inhibition of CDK2/cyclin A retinoblastoma kinase activity (Ki; % inhibition); type: biochemical; conditions: for Ki: apparent Ki, CDK2/cyclin A, Rb substrate
T1 construct: made in house; host or cells: CDK2: insect cells (baculovirus); cyclin A: E. coli
Experimental: (§1) Cyclin-dependent kinase activity was measured by quantifying the enzyme-catalyzed, time-dependent incorporation of radioactive phosphate from [^32P]ATP or [^33P]ATP into a protein substrate. Unless noted otherwise, assays were performed in 96-well plates in a total volume of 50 μL, in the presence of 10 mM HEPES (N-[2-hydroxyethyl]piperazine-N′-[2-ethanesulfonic acid]) (pH 7.4), 10 mM MgCl2, 25 μM adenosine triphosphate (ATP), 1 mg/mL ovalbumin, 5 μg/mL leupeptin, 1 mM dithiothreitol, 10 mM β-glycerophosphate, 0.1 mM sodium vanadate, 1 mM sodium fluoride, 2.5 mM ethylene glycol-bis(β-aminoethyl ether)-N,N,N′N′-tetraacetic acid (EGTA), 2% (v/v) dimethylsulfoxide, and 0.03-0.4 μCi [^32/33P]ATP per reaction. Reactions were initiated with enzyme, incubated at 30° C., and terminated after 20 minutes by the addition of ethylenediaminetetraacetic acid (EDTA) to 250 mM. The phosphorylated substrate was then captured on a nitrocellulose or phosphocellulose membrane using a 96-well filtration manifold, and unincorporated radioactivity was removed by repeated washing with 0.85% phosphoric acid. Radioactivity was quantified by exposing the dried membranes to a phosphorimager.
(§2) Compounds from combinatorial libraries were screened from 96-well plates for % inhibition of CDK activity at 30 nM theoretical compound concentration. Inhibition was measured relative to control wells that contained all reaction components including 2% (v/v) DMSO but no compound, after subtraction of background radioactivity measured in the absence of enzyme. Apparent Ki values of discrete compounds were measured by assaying enzyme activity in the presence of different inhibitor compound concentrations and subtracting the background radioactivity measured in the absence of enzyme. The kinetic parameters (kcat, Km for ATP) were measured for each enzyme under the usual assay conditions by determining the dependence of initial rates on ATP concentration. Inhibition data were fit to an equation for competitive inhibition using Kaleidagraph (Synergy Software), or were fit to an equation for competitive tight-binding inhibition using the software KineTic (BioKin, Ltd.).
CDK2 was purified using published methodology (Rosenblatt et al., “Purification and Crystallization of Human Cyclin-dependent Kinase 2,” J. Mol. Biol., 230, 1993, pp. 1317-1319) from insect cells that had been infected with a baculovirus expression vector. […] A complex of CDK2 and proteolyzed cyclin A was prepared and purified by gel filtration. The substrate for this assay was the same Rb substrate fragment used for the CDK4 assays, and the methodology of the CDK2/delta cyclin A and the CDK4/delta cyclin D3 assays was essentially the same, except that CDK2 was present at 10 nM or 19 nM. The duration of the assay was 60 or 75 minutes, during which the time-dependence of product formation was linear and initial rate conditions were met.

human CDK4/cyclin D3 = biological target: T2, human CDK4/cyclin D3 (Homo sapiens, UniProt P11802); test: Inhibition of CDK4/cyclin D retinoblastoma kinase activity (Ki; % inhibition); type: biochemical; conditions: for Ki: apparent Ki, CDK4/cyclin D3, Rb substrate
T2 construct: made in house; host or cells: insect cells co-infected with baculovirus vectors
T2 sequence (P11802 whole entry): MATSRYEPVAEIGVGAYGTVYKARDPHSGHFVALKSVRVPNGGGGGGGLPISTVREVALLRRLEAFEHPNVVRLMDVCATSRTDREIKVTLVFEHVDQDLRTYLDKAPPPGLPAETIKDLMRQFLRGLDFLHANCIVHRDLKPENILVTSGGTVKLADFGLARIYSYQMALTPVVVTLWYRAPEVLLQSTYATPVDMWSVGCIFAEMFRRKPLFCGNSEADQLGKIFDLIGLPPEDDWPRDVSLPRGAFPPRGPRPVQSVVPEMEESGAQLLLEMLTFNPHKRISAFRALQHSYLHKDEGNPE
T2 sequence (P30281 1-264 partner limits assumed): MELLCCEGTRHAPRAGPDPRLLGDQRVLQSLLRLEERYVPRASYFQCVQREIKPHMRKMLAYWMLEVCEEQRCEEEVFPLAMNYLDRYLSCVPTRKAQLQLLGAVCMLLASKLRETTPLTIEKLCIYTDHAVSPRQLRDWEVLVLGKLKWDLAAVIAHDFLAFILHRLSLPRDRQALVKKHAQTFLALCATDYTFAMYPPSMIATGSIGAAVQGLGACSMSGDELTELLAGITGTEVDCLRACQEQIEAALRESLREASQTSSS
Experimental: as §1, §2
A complex of human CDK4 and genetically truncated (1-264) cyclin D3 was purified using traditional biochemical chromatographic techniques from insect cells that had been co-infected with the corresponding baculovirus expression vectors (see e.g., Meijer and Kim, “Chemical Inhibitors of Cyclin-Dependent Kinases,” Methods in Enzymol., 283 (1997), pp. 113-128.). The enzyme complex (5 nM) was assayed with 0.3-0.5 μg of purified recombinant retinoblastoma protein fragment (Rb) as a substrate. The engineered Rb fragment (residues 386-928 of the native retinoblastoma protein; 62.3 kDa) contains the majority of the phosphorylation sites found in the native 106-kDa protein, as well as a tag of six histidine residues for ease of purification. Phosphorylated Rb substrate was captured by microfiltration on a nitrocellulose membrane and quantified using a phosphorimager as described above. For measurement of tight-binding inhibitors, the assay duration was extended to 60 minutes, during which the time-dependence of product formation was linear and initial rate conditions were met.

HCT-116 cell line = test: Inhibition of cell growth, MTT tetrazolium salt assay; type: cell-based; conditions: for IC50: Homo sapiens, HCT-116, 120 h, MTT, three to five days
Experimental: Inhibition of cell growth was measured using the tetrazolium salt assay, which is based on the ability of viable cells to reduce 3-(4,5-dimethylthiazol-2-yl)-2,5-[2H]-diphenyltetrazolium bromide (MTT) to formazan (Mossman, Journal of Immunological Methods, 65, (1983), pp. 55-58). The water-insoluble purple formazan product was then detected spectrophotometrically. The HCT-116 cell line was used as a representative cancer cell line and grown in 96-well plates. Cells were plated in McCoy's 5A Medium at a volume of 135 μl/well. Plates were incubated for four hours before addition of inhibitor compounds. Different concentrations of inhibitor compounds were added in 0.5% (v/v) dimethylsulfoxide (15 μL/well), and cells were incubated at 37° C. (5% CO2) for three to five days. At the end of the incubation, MTT was added to a final concentration of 0.2 mg/mL, and cells were incubated for 4 hours more at 37° C. After centrifugation of the plates and removal of medium, the absorbance of the formazan (solubilized in dimethylsulfoxide) was measured at 540 nm. The concentration of inhibitor compound causing 50% (IC50) or 90% ([…]) inhibition of growth was determined from the linear portion of a semi-log plot of inhibitor concentration versus percent inhibition. All results were compared to control cells treated only with 0.5% (v/v) dimethylsulfoxide.

[1] = HCT-116 cells, 0.25 μM compound

Row | Structure (SMILES) | CDK2 % Inhibition at 0.03 μM (CDK2/cyclin A; at 0.03 μM) | CDK4 % Inhibition at 0.03 μM (human CDK4/cyclin D3; at 0.03 μM) | HCT-116 % Inhibition at 0.25 μM (HCT-116 cell line; HCT-116, at 0.25 μM) | CDK2 % Inhibition at 0.03 μM (CDK2/cyclin A; 0.03 μM compound) | CDK4 % Inhibition at 0.03 μM (human CDK4/cyclin D3; 0.03 μM compound) | HCT-116 % Inhibition at 0.1 μM (HCT-116 cell line; HCT-116 cells, 0.1 μM compound) | HCT-116 % Inhibition at 0.25 μM (HCT-116 cell line; [1]) | Ki (CDK2/cyclin A) | Ki (human CDK4/cyclin D3) | other results
1 | CC(C)NC(=O)c1ccc(Nc2nc(N)c(C(=O)c3c(F)cccc3F)s2)cc1 [Example G96] | −10% | 5% | 56% |  |  |  |  |  |  | HCT-116 % Inhibition at 0.1 μM (HCT-116 cell line; HCT-116, at 0.1 μM): 20%
2 | Nc1nc(Nc2ccc(C(=O)Nc3cccc(Cl)c3)cc2)sc1C(=O)c1c(F)cccc1F [Example G76] | 7% | 7% | 61% |  |  |  |  |  |  | 
3 | COc1cc(NC(=O)c2ccc(Nc3nc(N)c(C(=O)c4c(F)cccc4F)s3)cc2)cc(OC)c1OC [Example G295] |  |  |  | 8% | 22% | 10% | 78% |  |  | 
4 | Nc1nc(Nc2ccc(C(=O)NCc3nccs3)cc2)sc1C(=O)c1c(F)cccc1F [Example A49, 4-[4-Amino-5-(2,6-difluoro-benzoyl)-thiazol-2-ylamino]-N-(thiazol-2-yl-methyl)-benzamide Hydrochloride] |  |  |  |  |  |  |  | 260 nM | 11 nM | IC50 (HCT-116 cell line): 320 nM
5 | CC(C)CNC(=O)c1ccc(Nc2nc(N)c(C(=O)c3c(F)cccc3F)s2)cc1 [Example G126] | 3% | 7% | 53% |  |  |  |  |  |  | HCT-116 % Inhibition at 0.1 μM (HCT-116 cell line; HCT-116, at 0.1 μM): 0%
6 | CN(C)c1ccc(NC(=O)c2ccc(Nc3nc(N)c(C(=O)c4c(F)cccc4F)s3)cc2)cc1 [Example A16, 4-[4-Amino-5-(2,6-difluoro-benzoyl)-thiazol-2-ylamino]-N-(4-dimethylamino-phenyl)-benzamide] |  |  |  |  |  |  |  | 68 nM | 25 nM | IC50 (HCT-116 cell line): 170 nM
7 | CN(C)CCNC(=O)c1ccc(Nc2nc(N)c(C(=O)C34CC5CC(CC(C5)C3)C4)s2)cc1 [Example A58, 4-[5-(1-Adamantan-1-yl-methanoyl)-4-amino-thiazol-2-ylamino]-N-(2-dimethylamino-ethyl)-benzamide] |  |  |  |  |  |  |  | 3400 nM | 1000 nM | 
8 | CN(C)CCN1C(=O)c2ccc(Nc3nc(N)c(C(=O)c4c(F)cccc4F)s3)cc2C1=O [E, 5-[4-Amino-5-(2,6-difluoro-benzoyl)-thiazol-2-ylamino]-2-(2-dimethylamino-ethyl)-isoindole-1,3-dione] |  |  |  |  |  |  |  | 400 nM | 240 nM | 
9 | CN(C(=O)c1ccc(Nc2nc(N)c(C(=O)c3c(F)cccc3F)s2)cc1)C1CCCC1 [Example G80] | 3% | 7% | 36% |  |  |  |  |  |  | 
10 | C=CCN(C(=O)c1ccc(Nc2nc(N)c(C(=O)c3c(F)cccc3F)s2)cc1)C1CCCCC1 [Example G320] |  |  |  | −15% | 5% | 12% | 46% |  |  | 
11 | Cn1cncc1CNC(=O)c1ccc(Nc2nc(N)c(C(=O)c3c(F)cccc3F)s2)cc1 [Example A64, 4-[4-Amino-5-(2,6-difluoro-benzoyl)-thiazol-2-ylamino]-N-(1-methylimidazol-5-yl-methyl)-benzamide] |  |  |  |  |  |  |  | 19 nM | 22 nM | IC50 (HCT-116 cell line): > 5000 nM
12 | COc1ccc(C)c(NC(=O)c2ccc(Nc3nc(N)c(C(=O)c4c(F)cccc4F)s3)cc2)c1 [Example A19, 4-[4-Amino-5-(2,6-difluoro-benzoyl)-thiazol-2-ylamino]-N-(5-methoxy-2-methyl-phenyl)-benzamide] |  |  |  |  |  |  |  | 64 nM | 105 nM | IC50 (HCT-116 cell line): 110 nM
13 | CCCCN(CCCC)C(=O)c1ccc(Nc2nc(N)c(C(=O)c3c(F)cccc3F)s2)cc1 [Example G314] |  |  |  | −7% | 0% | 9% | 47% |  |  | 
14 | Nc1nc(Nc2ccc(C(=O)NCCc3ccccc3)cc2)sc1C(=O)c1c(F)cccc1F [Example G91] | −19% | 9% | 68% |  |  |  |  |  |  | HCT-116 % Inhibition at 0.1 μM (HCT-116 cell line; HCT-116, at 0.1 μM): 34%
15 | COc1ccc(NC(=O)c2ccc(Nc3nc(N)c(C(=O)c4c(F)cccc4F)s3)cc2)cc1OC [Example G212] |  |  |  | 16% | 20% | 17% | 53% |  |  | 
16 | CC(=O)N[C@@H]1CCN(C(=O)c2ccc(Nc3nc(N)c(C(=O)c4c(F)cccc4F)s3)cc2)C1 [Example G373] |  |  |  | −7% | 10% | 31% | 48% |  |  | 
17 | N#CCCN(Cc1cccnc1)C(=O)c1ccc(Nc2nc(N)c(C(=O)c3c(F)cccc3F)s2)cc1 [Example G316] |  |  |  | −2% | 11% | 1% | 56% |  |  | 
18 | CCC(NC(=O)c1ccc(Nc2nc(N)c(C(=O)c3c(F)cccc3F)s2)cc1)c1ccccc1 (stereo not drawn) [Example G151] | 16% | 7% | 94% |  |  |  |  |  |  | HCT-116 % Inhibition at 0.1 μM (HCT-116 cell line; HCT-116, at 0.1 μM): 27%
19 | Nc1nc(Nc2ccc(C(=O)Nc3cccnc3)cc2)sc1C(=O)c1c(F)cccc1F [Example A27, 4-[4-Amino-5-(2,6-difluoro-benzoyl)-thiazol-2-ylamino]-N-(pyridin-3-yl)-benzamide] |  |  |  |  |  |  |  | 66 nM | 41 nM | 
20 | Nc1nc(Nc2ccc(C(=O)NCCOCCO)cc2)sc1C(=O)c1c(Cl)cccc1Cl [Example B5, 4-[4-Amino-5-(2,6-dichloro-benzoyl)-thiazol-2-ylamino]-N-[2-(2-hydroxy-ethoxy)-ethyl]-benzamide] |  |  |  |  |  |  |  | 150 nM | 59 nM | 
